Results from patent publication US8536171B2, “Method for obtaining 5-amino 2,3-dihydrophthalazine-1,4-dione alkali metal salts and their use in medicine” (Abidopharma PL SP. Z.O.O., priority 2009, dated 2013).
Like-named read-outs stand apart in the source and are kept apart here.

Columns and labels:
[1] = system: people after myocardial infarction; conditions: 15 patients, versus control group
Excerpt: II-Na salt was applied also for treatment of people after myocardial infarction.

[2] = system: patients with inflammatory diseases of head, maxillofacial area and neck; conditions: above 50 patients, various forms and doses
[3] = system: rats with experimental myocardial infarction; conditions: for ALT / AST / CPK / LDH1, 2: blood, 5 mg/kg per 24 hours intramuscularly, n = 5
Procedure: (§1) The animals of 230 to 258 g were subjected to ether narcosis for 1-3 minutes, Next, by the thoracotomy method there was achieved access to the anterior branch of the coronary artery and its lumen was closed by means of an electrode. The wound was closed by atraumatic sutures. […] The rats were divided in two groups.
(§2) The animals were being observed for 24 hours (every one in a separate cage). […] The second group of 10 rats (5 of each group) were killed after 5 days and the third group of 10 animals (5 of each group)—after 7 days. In all the rats there was performed postmortem macroscopic examination of hearts, pleura and abdominal cavity organs. The tissues were taken from the infarct focus for microscopic examination. They were retained in formalin and stained conventionally with H-E. Blood for biochemical tests was taken by heart puncture of 3 ml volume.
In the biochemical trials there were estimated levels of creatinine kinase (CPK), lactate dehydrogenase (LDH 1-2), aspargine transaminase (AST) and alanine transaminase (ALT) before the infarct and on 1, 5 and 7 day after the infarct (Apparatus “Immunochemistry System”, Beckman Coulter, “DSL”, “Multiscan”, Labsystem; Glycomat DSS, Drew).

[4] = system: rats with experimentally developed muscles ischemia
[5] = system: rats with alloxan diabetes
Excerpt: The results were presented below in Table 2.
The results of the trials were presented below in Table 3.

[6] = system: patients with acute and chronic pancreatitis
[7] = system: rats with STZ diabetes; assay: Rats with diabetes induced by streptozotocin (STZ); format: in vivo; conditions: for glycemia / level of malonic dialdehyde (MDA), oxidation stress marker: in comparison to the group of the STZ untreated rats
[8] = system: model animals with experimentally-induced sepsis; conditions: 0% for untreated animals
[9] = system: rats with experimental myocardial infarction
Procedure: as §1, §2

[10] = system: psychotic and neurological patients (multiple sclerosis, anxiety, depression); assay: Clinical trials in nervous system and psychic diseases; format: in vivo, human
Excerpt: In the psychotic patients in combination with the conventional treatment and in the neurological patients as monotherapy.

[11] = system: patients suffering from diabetes of type I and type II
[12] = background statement; cited from earlier work
[13] = blood, alloxan diabetes rats treated with II-Na salt (Table 2)
[14] = blood, alloxan diabetes rats treated with II-Na salt (Table 3)

Q: For `Nc1cccc2c(=O)[nH][nH]c(=O)c12.[Na]` [II-Na salt, 5-amino-2,3-dihydrophthalazine-1,4-dione sodium salt], which “pain discomfort in the chest” value ([1]; 100/200 mg per 24 hours intramuscular for seven days plus conventional therapy) is on record?
A: Its value is “quicker reduction of pain discomfort in the chest”.

Q: What about the “blood biochemical parameters (CPK, LDH, ALT, AST) and x-ray image” value [1] of the same compound?
A: Its value is “quicker normalization of blood biochemical parameters”.

Q: And the “effect on inflammatory state” value [2]?
A: The value was “quicker tissues regeneration, inhibition of apoptosis and quicker symptoms subsidence or remission maintenance”.

Q: What about the ALT ([3]; fifth day after infarct) of the same compound?
A: The ALT was 0.271 ± 0.059 µmol/L.

Q: What about the AST ([3]; fifth day after infarct) of the same compound?
A: The AST was 0.204 ± 0.03 µmol/L.

Q: What about the CPK ([3]; fifth day after infarct) of the same compound?
A: Its CPK is 405.28 ± 27.84 µmol/L.

Q: What about the “LDH1, 2” value ([3]; fifth day after infarct) of the same compound?
A: The value was 187.94 ± 34.37 µmol/L.

Q: What about the ALT ([3]; first day after infarct) of the same compound?
A: The ALT was 0.178 ± 0.028 µmol/L.

Q: And the AST ([3]; first day after infarct)?
A: Its AST is 0.254 ± 0.034 µmol/L.

Q: And the CPK ([3]; first day after infarct)?
A: The CPK was 322.56 ± 43.79 µmol/L.

Q: And the “LDH1, 2” value ([3]; first day after infarct)?
A: The value was 248.84 ± 41.10 µmol/L.

Q: And the ALT ([3]; seventh day after infarct)?
A: The ALT was 0.24 ± 0.024 µmol/L.

Q: And the AST ([3]; seventh day after infarct)?
A: Its AST is 0.225 ± 0.024 µmol/L.

Q: What about the CPK ([3]; seventh day after infarct) of the same compound?
A: The CPK was 291.35 ± 18.9 µmol/L.

Q: And the “LDH1, 2” value ([3]; seventh day after infarct)?
A: Its value is 175.5 ± 25.89 µmol/L.

Q: What about the “normalization of the tested blood parameters” value ([3]; conclusion on Table 1) of the same compound?
A: Its value is “quicker normalization of all the tested parameters”.

Q: What about the “Number of capill. in 1 mm^3” value ([4]; Ischaemia-12 days) of the same compound?
A: Its value is 152.3 ± 12.7 in 1 mm^3.

Q: And the “Number of capill. in 1 mm^3” value ([4]; Ischaemia-29 days)?
A: Its value is 236.4 ± 16.9 in 1 mm^3.

Q: And the IGF-1 ([5]; blood, alloxan diabetes rats treated with II-Na salt)?
A: The IGF-1 was 699.13 ± 81.4 ng/mL.

Q: What about the IGF-2 [5, 13] of the same compound?
A: The IGF-2 was 37.9 ± 1.65 ng/mL.

Q: And the Insulin [5, 13]?
A: The Insulin was 0.724 ± 0.08 mg/mL.

Q: What about the IGF-2 [5, 14] of the same compound?
A: The IGF-2 was 37.9 ± 1.65 ng/mL.

Q: What about the Insulin [5, 14] of the same compound?
A: Its Insulin is 7.24e-07 ± 8e-08 mg/mL.

Q: What about the Glucose ([5]; blood, alloxan diabetes rats treated with II-Na salt, 5 mg per kg per 24 hours for a month, sodium salt) of the same compound?
A: Its Glucose is 4.16 ± 0.56 mmol/L.

Q: And the “Glycated hemoglobin (Hb A1C)” value ([5]; blood, alloxan diabetes rats treated with II-Na salt, sodium salt)?
A: Its value is 9.05 ± 0.58 %.

Q: And the IGF-1/IGF-2 ([5]; ratio, alloxan diabetes rats treated with II-Na salt)?
A: The IGF-1/IGF-2 was 16.2 ± 2.4.

Q: What about the “starting formation of pseudocysts” value ([6]; 2 patients, after treatment) of the same compound?
A: Its value is “disappeared”.

Q: And the septic complications ([6]; 25 patients, conventional therapy plus II-Na salt)?
A: The septic complications was “one patient”.

Q: What about the “normalization of the laboratory tests results” value ([6]; after a month, of 25 patients) of the same compound?
A: The value was “twenty two patients”.

Q: What about the “patients who could come back to nutrition per os” value ([6]; after three weeks of treatment, of 25 patients) of the same compound?
A: The value was “twenty patients”.

Q: And the insulin level ([6]; after two weeks of treatment)?
A: The insulin level was “raised nearly to normal”.

Q: And the “reduction of the glucose level” value ([6]; after two weeks of treatment)?
A: The value was “two times”.

Q: And the “reduction Hb1AC” value ([6]; after two weeks of treatment, fifteen patients with reduced insulin level)?
A: The value was “in six patients to the normal range”.

Q: And the insulin administration ([6]; after two weeks of treatment, from up to 40 IU/day)?
A: The insulin administration was 10 IU/day.

Q: And the “pain disappeared in all patients (time)” value ([6]; control group: above two weeks)?
A: Its value is “seven days”.

Q: What about the “pain symptoms reduced in all the patients (time)” value ([6]; day of treatment) of the same compound?
A: Its value is “second day”.

Q: And the “effects observed in the pancreas” value ([6]; research (rats, 5 mg per kg per 24 hours for a month) and clinical trials)?
A: The value was “inhibition of inflammatory and necrotic processes in the pancreas”.

Q: And the glycemia [7]?
A: Its glycemia is 62%.

Q: What about the “level of malonic dialdehyde (MDA), oxidation stress marker” value [7] of the same compound?
A: The value was 48.7%.

Q: What about the “level of glutathione (GSH), oxidation stress marker” value ([7]; result in words) of the same compound?
A: The value was “does not change”.

Q: And the viability of rats [8]?
A: The viability of rats was 80%.

Q: What about the “polymorphic-nucleated leucocytes in the demarcation zone” value ([9]; fifth day) of the same compound?
A: The value was “not observed”.

Q: What about the “postoperative wound healed by first intension (per primam)” value ([9]; fifth day, 4 rats without II-Na salt) of the same compound?
A: Its value is “all 5 rats”.

Q: What about the leucocytes migration ([9]; first 24 hours after the infarct) of the same compound?
A: Its leucocytes migration is “not observed”.

Q: What about the “fibrosis (Weinert's staining)” value ([9]; fourteenth day, 5 mg/kg) of the same compound?
A: Its value is “only few traits of fibrosis”.

Q: What about the polymorphic-nucleated leucocytes ([9]; fourteenth day, 5 mg/kg) of the same compound?
A: Its polymorphic-nucleated leucocytes is “not observed”.

Q: What about the “regeneration processes of damaged tissues” value ([9]; overall conclusion) of the same compound?
A: Its value is “positive influence on regeneration processes of damaged tissues”.

Q: And the “capillary vessels in the infarct zone” value ([9]; seventh day)?
A: Its value is “normal of the sinusoidal type”.

Q: And the “lymphocytic profile and cytokines” value ([10]; II-Na salt 100 mg per 24 hours intramuscularly for 30 days)?
A: The value was “normalization of the lymphocytic profile and cytokines”.

Q: And the disease symptoms ([10]; human, in vivo)?
A: The disease symptoms was “disease symptoms reduction”.

Q: What about the “preventive use in the period of remission” value ([10]; spring and autumn, 100 mg/d, 10 injections every day and 10 every second day) of the same compound?
A: Its value is “long-time remission”.

Q: And the glycemia level ([11]; after a week of treatment, from 7.5 mmol/l, 100 mg intramuscular injection)?
A: The glycemia level was 5.1 mmol/L.

Q: What about the insulin dose ([11]; after a week of treatment, reduced from 45 IU) of the same compound?
A: The insulin dose was 15 IU per day.

Q: And the cholesterol level ([11]; patients with diabetes of type II)?
A: The cholesterol level was “slight reduction”.

Q: With `CN(CCOc1ccc(CC2SC(=O)NC2=O)cc1)c1ccccn1` (centres unmarked) [Rosiglytazone, reference compound] as the compound, how does the glycemia [7] read?
A: The glycemia was 55%.

Q: And the “level of malonic dialdehyde (MDA), oxidation stress marker” value [7]?
A: Its value is 54%.

Q: What about the “level of glutathione (GSH), oxidation stress marker” value ([7]; in comparison to the healthy rats) of the same compound?
A: The value was 127%.

Q: With `Nn1[nH]c(=O)c2ccccc2c1=O.[Na]` [compound III, 2-amino-1,2,3,4-tetrahydrophthalazine-1,4-dione sodium salt] as the compound, how does the solubility in water [12] read?
A: Its solubility in water is “easily soluble in water”.

Q: With `Nc1cccc2c(=O)[nH][nH]c(=O)c12` [luminol, 5-Amino-2,3-dihydrophthalazine-1,4-dione] as the compound, how does the solubility in water [12] read?
A: The solubility in water was “poorly soluble in water”.
